What was measured:
Format in all cases: in vivo
Scirpus juncoides = assay: Test for Herbicidal Effect in Flooding Treatment (#1), SCIJU; conditions: flooding treatment at seeding, dose 2 kg/ha, visual observation on day 21
How it was run: (§1)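 Flooded soil in cups was seeded 24 h after flooding, then treated with compound in acetone diluted with Tween 80-containing water, dropped onto the water surface at 2 kg/ha. After growth in a glasshouse, growth inhibition was scored visually on day 21 on a 0 (<10%) to 5 (≥90% or complete withering) scale.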

Digitaria ciliaris = assay: Test for Herbicidal Effect in Soil Treatment (#3); conditions: 504 h, dose of 2 kg/ha, day 21, visual observation, read-out: growth inhibition effect
Excerpt: 0: Growth inhibition effect is less than 10%. 1: Growth inhibition effect is equal to or greater than 10%, and less than 30%. 2; Growth inhibition effect is equal to or greater than 30%, and less than 50%. 3: Growth inhibition effect equal to or greater than 50%, and less than 70%. 4: Growth inhibition effect is equal to or greater than 70%, and less than 90%. 5: Growth inhibition effect is equal to or greater than 90%, or complete withering is achieved. (#3) Test for Herbicidal Effect in Soil Treatment: Styrol cups each having an opening diameter of 8 cm (about 52 cm^2) were respectively filled with soil (45 ml) which had been passed through a sieve (2 mm). Water (about 115 ml) was added. Thereafter, Digitaria ciliaris was seeded. Each of the compounds of the present invention was dissolved in acetone, and the obtained product was then diluted with water containing Tween 80°. Each of the resultant chemical solutions was dropped on the entire surface of an associated one of treatment sections, so that each section was treated with 1 ml of the respective chemical solution (a dose of 2 kg/ha). After the treatment, the plants were grown in a glasshouse. On day 21, a survey was conducted on the herbicidal activity by visual observation, and evaluation was made according to the following criteria. The herbicidal activity of the following comparative compounds A and B (the compounds disclosed Japanese Unexamined Patent Publication No. 2003-096059) were evaluated.

Monochoria vaginalis = assay: Test for Herbicidal Effect in Flooding Treatment (#1), MONVA; conditions: flooding treatment at seeding, dose 2 kg/ha, visual observation on day 21
How it was run: as §1

[1] = test system: Echinochloa crus-galli (L.) P. Beauv. var. formosensis Ohwi; assay: Test for Herbicidal Effect in Flooding Treatment (#2), ECHDG at 2-2.5 leaf stage; conditions: flooding treatment at 2-2.5 leaf stage, dose 0.2 kg/ha, visual observation on day 21
How it was run: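 Flooded muddy soil was seeded with the weed, and at 2–2.5 leaf stage compound in acetone/Tween 80 water was dropped on the water surface at 0.2 kg/ha. Plants were kept in a glasshouse and scored visually on day 21 from 0 (<10% growth inhibition) to 5 (≥90% or complete withering).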

[2] = test system: Echinochloa crus-galli (L.) P. Beauv. var. formosensis Ohwi; assay: Test for Herbicidal Effect in Flooding Treatment (#1), ECHDG; conditions: flooding treatment at seeding, dose 2 kg/ha, visual observation on day 21
How it was run: as §1

Cyperus microiria = assay: Test for Herbicidal Effect in Flooding Treatment (#1), CYMIC; conditions: flooding treatment at seeding, dose 2 kg/ha, visual observation on day 21
How it was run: as §1

In the case of `CCOc1cc(F)c(CS(=O)(=O)c2ncc(Cl)s2)cc1F` [Compound 1C-101, 5-chloro-2-[(2,5-difluoro-4-ethoxyphenyl)(methanesulfonyl)]-1,3-thiazole], the “SCIJU #1 herbicidal effect (growth inhibition grade)” value (Scirpus juncoides) is reported as 5 (Growth inhibition effect is equal to or greater than 90%, or complete withering is achieved), the inhibition at 2000 g/ha (Digitaria ciliaris) is reported as at least 50% and the “MONVA #1 herbicidal effect (growth inhibition grade)” value (Monochoria vaginalis) is reported as 5 (Growth inhibition effect is equal to or greater than 90%, or complete withering is achieved). For the same compound, the “ECHDG (2-2.5L) #2 herbicidal effect (growth inhibition grade)” value [1] was 5 (Growth inhibition effect is equal to or greater than 90%, or complete withering is achieved), the “ECHDG #1 herbicidal effect (growth inhibition grade)” value [2] was 5 (Growth inhibition effect is equal to or greater than 90%, or complete withering is achieved) and the “CYMIC #1 herbicidal effect (growth inhibition grade)” value (Cyperus microiria) was 5 (Growth inhibition effect is equal to or greater than 90%, or complete withering is achieved).
